Results as given in US20230390296A1, “NOVEL TREATMENT AND PREVENTION OF SARCOPENIA-RELATED DISEASES” (KEIO UNIVERSITY, priority 2020, published 2023).

Assays:
[1] = tested on: C2C12 cells; experiment: Gene expression levels in treated cultured cells; type: cell-based, mouse
Procedure: Mouse striated muscle derived cells, i.e., C2C12 cells, were cultured and treated with OK-1, ICG-001, or C-82. Gene expression levels of cells treated with OK-1, ICG-001, or C-82, and untreated cells are compared.

[2] = tested on: old mice; experiment: Muscle mass by MRI (volume of right gastrocnemius muscle/soleus muscle), with/without treadmill exercise; type: in vivo, mouse
Procedure: OK-1 was then intraperitoneally administered to each mouse twice a week at 20 mg/kg/day over 8 weeks (i.e., until reaching 23 week old and 88 week old, respectively). Treadmill exercise was conducted three times a week at 8 m/minute for 5 minutes→15 m/minute for 35 minutes while administering OK-1 twice a week at 20 mg/kg/day over 5 weeks (i.e., until reaching 28 week old and 93 week old, respectively). The muscle mass was then measured with the following equipment and conditions through MRI (FIG. 1B). MRI (MRminiSA1545, Japan REDOX) (magnetic flux density: 1.5 tesla (permanent magnet) (temporal resolution: 100 ns) was used to capture images of the lower limbs of the mice. The recovered data was converted into dicom data, and the volume of right gastrocnemius muscle/soleus muscle was quantified with Osirix Lite.

[3] = tested on: old mice (C57BL/6J); experiment: Treadmill test of muscle strength (endurance) in young and old mice; type: in vivo, mouse; settings: intraperitoneal, twice a week over three months, 20 mg/kg/day; young (15-week) and old (79-week) mice
Excerpt: Decrease in endurance in old mice In order to confirm that a decrease in muscle strength is observed in mouse models (C57BL/6J) (purchased from Oriental Yeast), the muscle strength (endurance) in 15-week old young mice and 79-week-old old mice was investigated in a treadmill test in accordance with the following (FIG. 1A). Prior to recording the performance, mice were trained for 3 days to acclimate the mice to the equipment. Electric stimulation grid was adjusted to 1 mA, and the gradient was set to 15 degrees. On the first day of training, mice were induced to walk for 10 minutes at a rate of 10 m/minute, allowed to rest for 10 minutes, and then induced to walk for 10 minutes at a rate of 10 m/minute on a treadmill. On day 2 and day 3, the first two steps were the under the same conditions as day 1, and then the mice were induced to start walking at 10 m/minute. The speed was increased by 1 m/minute until reaching the maximum speed of 20 m/minute. On day 4, the maximum exercise endurance was measured. Six mice were placed on a treadmill, which was started at a belt speed of 5 m/minute for 5 minutes to let the mice warm up. The speed was increased 1 m/minute until reaching the maximum speed of 20 m/minute. After making the mice run for 5 minutes, the speed was increased from 20 m/minute to 21 m/minute for 10 minutes. The mice were then forced to run at 22 m/minute until stalling on the electric stimulation grid for 10 seconds. The distance traveled until stalling for 10 seconds was measured.
(§1) OK-1 manufactured in Manufacturing Example 1 was intraperitoneally administered to young and old mice twice a week over three months. The dosage was 20 mg/kg/day.
74-week old mice (C57B16/J) were purchased from Oriental Yeast. […] Muscle strength (endurance) and grip strength of mice administered with C-82 were then measured through a treadmill test and smart grip strength meter for rats and mice (Muromachi Kikai Co., Ltd.), respectively. […]

[4] = Body weight and behavior during the dosing period; type: in vivo, mouse; settings: intraperitoneal, twice a week over three months, 20 mg/kg/day; young and old mice
Procedure: as §1

[5] = tested on: Activin Receptor and ACVR2B; settings: cited from earlier work

## O=C1[C@H](Cc2ccc(O)cc2)N2C(=O)CCN(C(=O)NCc3ccccc3)[C@H]2CN1Cc1cccc2ccccc12 [ICG-001]
[1]
  gene expression levels versus untreated cells: change in gene expression similar to Example 2

## O=C1[C@H](Cc2ccc(O)cc2)N2C(=O)CCN(C(=O)NCc3ccccc3)[C@H]2CN1Cc1cccc2ccccc12 [compound 8]
[2]; 20 mg/kg/day twice a week plus treadmill exercise three times a week over 5 weeks
  muscle mass (MRI), combined use of administration with exercise: muscle mass significantly recovers synergistically
[2]; intraperitoneal 20 mg/kg/day twice a week over 8 weeks, then 5 further weeks
  muscle mass (MRI): increases muscle mass in old mice
[3]
  muscle strength (endurance) through a treadmill test: increase in muscle strength due to administration of compound 8 was observed specifically in old mice
[4]
  change in body weight and behavioral abnormality during the dosing period: a significant change in body weight and behavioral abnormality were not observed

B1: Bimagrumab: monoclonal antibodies (bimagrumab) developed by targeting Activin Receptor and ACVR2B (antibody, chains of the INN, looked up, V domains shown)
VH: QVQLVQSGAEVKKPGASVKVSCKASGYTFTSSYINWVRQAPGQGLEWMGTINPVSGSTSYAQKFQGRVTMTRDTSISTAYMELSRLRSDDTAVYYCARGGWFDYWGQGTLVTVSS
VL: QSALTQPASVSGSPGQSITISCTGTSSDVGSYNYVNWYQQHPGKAPKLMIYGVSKRPSGVSNRFSGSKSGNTASLTISGLQAEDEADYYCGTFAGGSYYGVFGGGTKLTVL
[5]; background statement
  muscle mass: promotes muscle differentiation to increase muscle mass
[5]; phase 2 trial completed, development discontinued in 2018
  sarcopenia symptoms including the gait speed and grip strength: has not resulted in dramatic improvement in sarcopenia symptoms including the gait speed and grip strength
